Usually IC50 stands for the point on the concentration scale where inhibition reaches its midpoint. A higher IC50 goes with weaker potency in that assay.

Results on 13 compounds are retold here after patent US20260265244A1, “HETEROCYCLIC COMPOUNDS AS STING ANTAGONISTS” (Boehringer Ingelheim International GmbH, priority 2022, published 2026).

In assay [1] the target is T1, human STING WT (R232) (Homo sapiens, UniProt Q86WV6, H232R).
T1 construct: purchased Cisbio 64BDSTGPEG
The assay is described as follows: Human STING HTRF binding assay (competitive, Cisbio 64BDSTGPEG). As to the method: Binders to human STING WT (R232) were identified using a competitive HTRF assay format (Cisbio 64BDSTGPEG), which uses d2-labeled STING ligand, a 6His (SEQ ID NO: 2) tagged human STING protein, and an anti 6His (SEQ ID NO: 2) Cryptate-labeled antibody. Compounds compete with the STING ligand-d2 and thereby prevents FRET from occurring, which can be measured by an EnVision™ reader (PerkinElmer).
Assay method: Compounds were delivered as 10 mM DMSO solution, serially diluted by an Agilent Bravo Workstation and transferred to the 384 well assay plate (Perkin Elmer #6005359) using a Cybiwell dispenser. Typically, 8 concentrations were used with the highest concentration at 10 μM or 1 μM in the final assay volume followed by ~1:5 dilution steps. DMSO concentration was set to 1% in the final assay volume. The 384 well assay plate contained 20 test compounds and DMSO in column 23 and 24. A cGAMP standard dilution row was prepared according to the manufacturer and transferred to each assay plate. After transfer of compound solution or dilution buffer for negative (high) and positive (low) controls, 5 μl of the human STING protein (cyclic binding domain (residues 138-379) of the WT R232 human version, fused to a 6 His tag (SEQ ID NO: 2) at the Nter part; 1:50 dilution in detection buffer) were dispensed to all wells except of the positive control, which received detection buffer only. Plates were the centrifuged for 20 sec at 1000 rpm. After that, 10 μl of Anti-6His-Cryptate antibody/Sting ligand-d2 mix was added to all wells using a Multidrop combi dispenser, followed by another sec/1000 rpm centrifugation step. After an incubation of the plates for 180 min at room temperature, […] at […] (HTRF ratio) was measured using an Envison Reader (PerkinElmer).
Data evaluation and calculation: For data evaluation and calculation, HTRF ratios were calibrated using the cGAMP standard curve. After that, the measurement of the low control was set as 0% control and the measurement of the high control was set as 100% control. The IC50 values were calculated using the standard 4 parameter logistic regression formula. Calculation: [y=(a−d)/(1+(x/c)^b)+d], a=low value, d=high value; x=conc M; c=IC50 M; b=slope;
A general note: TR-FRET usually uses a lanthanide donor and a delayed reading to cut background.

For assay [2], the target named is T2, cGAMP binding domain of wild-type (GRR) human STING, residues 155-341 (Homo sapiens, UniProt Q86WV6, H232R).
T2 construct: His-TEV-hSTING (WT); TEV protease cleavage site (N); made in house; host or cells: E. coli BL21 DE3
T2 sequence (Q86WV6 with tags, fused parts or gaps H232R): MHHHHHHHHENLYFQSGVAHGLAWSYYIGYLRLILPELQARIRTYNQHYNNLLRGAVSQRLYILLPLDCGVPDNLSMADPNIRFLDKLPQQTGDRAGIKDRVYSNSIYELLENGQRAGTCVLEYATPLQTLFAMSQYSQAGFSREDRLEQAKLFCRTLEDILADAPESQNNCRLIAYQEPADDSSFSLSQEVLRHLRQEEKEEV
Put plainly: Increase of stability of STING protein against thermal denaturation, Differential Scanning Fluorimetry (DSF). The method, then: Dye fluorescence is quenched in aqueous environment and increases upon association of the dye with the hydrophobic parts of the unfolding protein. […] The inflection point of the curve represents the “melting” temperature of the protein (Tm) which is calculated numerically using the Boltzmann equation.
Method: The thermal stability of the STING protein was measured using a specific expression construct of the cGAMP binding domain of wild-type (GRR) human STING comprising residues 155-341 and a N-terminal 8×His-tag (SEQ ID NO: 3) in assay buffer containing 20 mM Tris, 150 mM NaCl at pH7.5.
The assay uses Hard-Shell® PCR Plates 384-Well CLR/WHT (Catalog #HSP3805, BIO-RAD), Microseal® ‘B’ Adhesive Seals for PCR Plates (Catalog #MSB-1001, BIO-RAD) and was run on a CFX384 Real-Time System (Bio-Rad).
A DMSO stock solution of SYPRO orange (SIGMA S5692-500UL) was prepared.
Compound stock solutions (10 mM in DMSO) were diluted 1:2 in DMSO to an intermediate compound concentration of 5 mM and then further diluted 1:40 in assay buffer resulting in a compound concentration of 125 μM and 2.5% DMSO.
Fluorescent dye stock solution (5000×SYPRO Orange) was then mixed with target protein and buffer to a concentration of 15 uM Protein and 25×SYPRO Orange. 2 ul of this protein-dye-mixture was added to 8 ul compound solution. Final volume was 10 uL. 3-6 well positions were used as negative control (protein with 2% DMSO). The plates were prepared for duplicate measurement and centrifuged for 2 min at 1000 g. In the measurement, 160 cycles of 0.5° C. were used (temperature ramp 15 s/cycle, 15° C. to 95° C.).
Final Assay concentrations for compound characterization were as follows: 100 uM compound, 3 uM target protein, 5×SYPRO Orange, 2% DMSO in 10 ul. All dispensing steps were performed using a HamiltonStar pipetting robot (Hamilton).
Dissociation curves were processed in Bio-Rad CFX Manager. Peak type was set to “negative”. Compound codes for screen were assigned in the plate layout.
Two replicates of TM measurements were averaged, and the standard deviation was calculated. In cases of SD>1.5° C. the measurement was repeated.
The melting point (Tm) obtained for STING protein alone was subtracted from T obtained for protein incubated with ligand to generate ΔTm values.
Protein production and purification: The protein used for the biophysical experiments was a recombinant human STING protein comprising its cytosolic ectodomain. A codon optimized DNA sequence (for expression in Escherichia coli) encoding amino acid residues 155 to 341 (Swiss Prot Q86WV6) of human STING (WT) was synthesized by GeneArt (Regensburg, Germany) and inserted into a pET17b E. coli expression vector. The protein construct encodes an N-terminal 8×His-tag (SEQ ID NO: 3) followed by tobacco etch virus protease (TEV) cleavage site and the above STING gene sequence. The resulting protein sequence for the used STING variant is listed below:
For expression of recombinant human STING above construct was transformed into E. coli BL21 DE3 strain and grown in shake flasks in LB-medium at 37° C. Expression was induced by addition of isopropyl β-D-1-thiogalactopyranoside to a final concentration of 1 mM and cultures shaken overnight. Cell pellets were centrifuged and stored at −70° C. until further use. Protein was purified by cell thawing in lysis buffer (20 mM TRIS-HCl, pH 8, 300 mM NaCl, 2 mM mercaptoethanol, 20 mM imidazole, Complete Protease Inhibitor (Roche) and DNase (Roche)), followed by metal affinity purification using Ni-NTA resins and elution buffer consisting of 20 mM TRIS-HCl, pH 8, 300 mM NaCl, 2 mM mercaptoethanol, 300 mM imidazole and size exclusion chromatography in running buffer (20 mM TRIS-HCl, pH 8, 100 mM NaCl, 2 mM DTT). The peak fraction was collected and concentrated to 2.5 mg/mL.

T1 sequence (Q86WV6 138-379 H232R): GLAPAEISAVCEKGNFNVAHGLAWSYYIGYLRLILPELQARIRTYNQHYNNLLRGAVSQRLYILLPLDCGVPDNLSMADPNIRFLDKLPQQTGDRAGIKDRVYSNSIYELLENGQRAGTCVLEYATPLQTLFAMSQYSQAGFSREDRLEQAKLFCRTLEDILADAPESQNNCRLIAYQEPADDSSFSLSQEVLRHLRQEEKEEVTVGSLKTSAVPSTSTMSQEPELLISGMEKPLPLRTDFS

In turn, `CCn1cc2cc(-n3nc(-c4cccc5nn(C[C@H](O)c6ccccc6)cc45)c(C(C)C)c3C)c(C)nc2n1` [Example 100, (1R)-2-[4-(1-{2-ethyl-6-methyl-2H-pyrazolo[3,4-b]pyridin-5-yl}-5-methyl-4-(propan-2-yl)-1H-pyrazol-3-yl)-2H-indazol-2-yl]-1-phenylethan-1-ol] yielded a half-inhibitory concentration (IC50) in assay [1] of 0.0069 µM. Moreover, the DSF in assay [2] came out at 28 K.
The like results for `CSc1nc2nn(C)cc2cc1-n1nc(-c2cccc3nn(C[C@H](O)c4ccccc4)cc23)c(C(C)C)c1C` [Example 20, (1R)-2-(4-{5-methyl-1-[2-methyl-6-(methylsulfanyl)-2H-pyrazolo[3,4-b]pyridin-5-yl]-4-(propan-2-yl)-1H-pyrazol-3-yl}-2H-indazol-2-yl)-1-phenylethan-1-ol] were, in that order, 0.0174 µM and 27 K.
Regarding `CC(C)c1c(-c2cccc3nn(C[C@H](O)c4ccccc4)cc23)nc(-c2cc3cn(C)nc3nc2C(F)(F)F)n1C` [Example 57, (1R)-2-(4-{1-methyl-2-[2-methyl-6-(trifluoromethyl)-2H-pyrazolo[3,4-b]pyridin-5-yl]-5-(propan-2-yl)-1H-imidazol-4-yl}-2H-indazol-2-yl)-1-phenylethan-1-ol], the half-maximal inhibitory concentration (IC50) in assay [1] was 0.0249 µM. In assay [2], the DSF is on record as 27 K.
The like results for `CC(C)c1nc2nn(C)cc2cc1-c1nc(-c2cccc3nn(C[S@@+]([O-])c4ccccc4)cc23)c(C2CC2)n1C` [Example 22, 2-{[(S)-benzenesulfinyl]methyl}-4-{5-cyclopropyl-1-methyl-2-[2-methyl-6-(propan-2-yl)-2H-pyrazolo[3,4-b]pyridin-5-yl]-1H-imidazol-4-yl}-2H-indazole] were, in that order, 0.02 µM and 33 K.
`Cc1c(C(C)C)c(-c2cccc3nn(C[C@H](O)c4ccc(OCCN5CCOCC5)cc4)cc23)nn1-c1cc2cn(C)nc2nc1C1CC1` [Example 15, (1R)-2-[4-(1-{6-cyclopropyl-2-methyl-2H-pyrazolo[3,4-b]pyridin-5-yl}-5-methyl-4-(propan-2-yl)-1H-pyrazol-3-yl)-2H-indazol-2-yl]-1-{4-[2-(morpholin-4-yl)ethoxy]phenyl}ethan-1-ol] returned an IC50 in assay [1] of 0.0191 µM. For the same compound, the DSF in assay [2] came out at 30 K.
In assay [1], `Cc1c(C(C)C)c(-c2cccc3nn(C[C@H](O)c4ccccc4)cc23)nn1-c1cc2cn(C)nc2nc1C(C)(C)C` [Example 113, (1R)-2-[4-(1-{6-tert-butyl-2-methyl-2H-pyrazolo[3,4-b]pyridin-5-yl}-5-methyl-4-(propan-2-yl)-1 H-pyrazol-3-yl)-2H-indazol-2-yl]-1-phenylethan-1-ol] displayed a 50% inhibitory concentration (IC50) of 0.0628 µM. In assay [2], the DSF was determined as 23 K.
The like results for `Cc1nc2nn(Cc3ncnn3C)cc2cc1-n1nc(-c2cccc3nn(C[C@H](O)c4ccccc4)cc23)c(C(C)C)c1C` [Example 62, (1R)-2-[4-(5-methyl-1-{6-methyl-2-[(1-methyl-1H-1,2,4-triazol-5-yl)methyl]-2H-pyrazolo[3,4-b]pyridin-5-yl}-4-(propan-2-yl)-1H-pyrazol-3-yl)-2H-indazol-2-yl]-1-phenylethan-1-ol] were, in that order, 0.0191 µM and 25 K.
In the same order, the values of `Cc1nc2nn(C)cc2cc1-n1nc(-c2cccc3nn(C[C@H](OCC(N)=O)c4ccccc4)cc23)c(C(C)C)c1C` [Example 108, 2-[(1R) -2-[4-(1-{2,6-dimethyl-2H-pyrazolo[3,4-b]pyridin-5-yl}-5-methyl-4-(propan-2-yl)-1H-pyrazol-3-yl)-2H-indazol-2-yl]-1-phenylethoxy]acetamide] are 0.0058 µM and 27 K.
The like results for `Cc1c(C(C)C)c(-c2cccc3nn(C[C@H](O)c4ccccc4)cc23)nn1-c1cc2cn(C)nc2nc1CC1CC1` [Example 54, (1R)-2-(4-{1-[6-(cyclopropylmethyl)-2-methyl-2H-pyrazolo[3,4-b]pyridin-5-yl]-5-methyl-4-(propan-2-yl)-1H-pyrazol-3-yl}-2H-indazol-2-yl)-1-phenylethan-1-ol] were, in that order, 0.0869 µM and 28 K.
For `Cc1c(C(C)C)c(-c2cccc3nn(C[C@H](O)c4ccccc4)cc23)nn1-c1cc2cn(C)nc2nc1C1CCOCC1` [Example 73, (1R)-2-(4-{5-methyl-1-[2-methyl-6-(oxan-4-yl)-2H-pyrazolo[3,4-b]pyridin-5-yl]-4-(propan-2-yl)-1H-pyrazol-3-yl}-2H-indazol-2-yl)-1-phenylethan-1-ol], the half-maximal inhibitory concentration (IC50) in assay [1] was found to be 0.0114 µM. Also, the DSF in assay [2] was 28 K.
The like results for `Cc1nc2nn(C3CCOC3)cc2cc1-n1nc(-c2cccc3nn(C[C@H](O)c4ccccc4)cc23)c(C(C)C)c1C` (stereo partly drawn) [Example 14, (1R)-2-(4-{5-methyl-1-[6-methyl-2-(oxolan-3-yl)-2H-pyrazolo[3,4-b]pyridin-5-yl]-4-(propan-2-yl)-1H-pyrazol-3-yl}-2H-indazol-2-yl)-1-phenylethan-1-ol] were, in that order, 0.0091 µM and 28 K.
`Cc1c(C(C)C)c(-c2cccc3nn(C[C@H](O)c4ccc(OCCN(C)C)cc4)cc23)nn1-c1cc2cn(C)nc2nc1C1CC1` [Example 101]: the IC50 in assay [1] worked out at 0.0106 µM. For the same compound, in assay [2], the DSF is 30 K.
The like results for `Cc1c(C(C)C)c(-c2cccc3nn(C[C@H](O)c4ccccc4)cc23)nn1-c1cc2cn(C)nc2nc1C(F)F` [Example 64, (1R)-2-(4-{1-[6-(difluoromethyl)-2-methyl-2H-pyrazolo[3,4-b]pyridin-5-yl]-5-methyl-4-(propan-2-yl)-1H-pyrazol-3-yl}-2H-indazol-2-yl)-1-phenylethan-1-ol] were, in that order, 0.0076 µM and 26 K.
